Data from PubChem BioAssay AID248 (DTP/NCI, 2004).
Toxic doses and inconclusive results are not listed.

Tested on: L1210 leukemia ip in BDF1 mice, survival T/C
Assay: NCI In Vivo Anticancer Drug Screen. Data for tumor model L1210 Leukemia (intraperitoneal) in B6D2F1 (BDF1) mice
Settings: endpoint: mean survival time, higher = longer survival
Outline: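 In this screen, tumor-bearing mice given compound are compared to those given vehicle, and their survival values are reported as a treated-to-control quotient.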

## CCOC(=O)Nc1cc(NCc2ccccc2)c(N)c(N)n1
dose: 100.0 mg/kg/injection, schedule: Q01DX001 (ip), vehicle: saline
  T/C: 96 % of control
dose: 200.0 mg/kg/injection, schedule: Q01DX001 (ip), vehicle: saline
  T/C: 97 % of control

## NC(=S)c1nn(C2OC(CO)C(O)C2O)c2ncnc(N)c12 (stereo not drawn)
dose: 0.78 mg/kg/injection, schedule: Q01DX009 (ip), vehicle: saline
  T/C: 122 % of control
dose: 3.12 mg/kg/injection, schedule: Q01DX009 (ip), vehicle: saline
  T/C: 173 % of control
dose: 6.25 mg/kg/injection, schedule: Q01DX009 (ip), vehicle: saline
  T/C: 89 % of control

## O=C1CCCc2cc(Cl)c(Cl)cc21
dose: 100.0 mg/kg/injection, schedule: Q01DX009 (ip), vehicle: Klucel (hydroxypropylcellulose) (HPC)
  T/C: 108 % of control
dose: 200.0 mg/kg/injection, schedule: Q01DX009 (ip), vehicle: Klucel (hydroxypropylcellulose) (HPC)
  T/C: 96 % of control
dose: 400.0 mg/kg/injection, schedule: Q01DX009 (ip), vehicle: Klucel (hydroxypropylcellulose) (HPC)
  T/C: 101 % of control

## CC(=N)Oc1ccccc1
dose: 75.0 mg/kg/injection, schedule: Q01DX001 (ip), vehicle: Klucel (hydroxypropylcellulose) (HPC)
  T/C: 101 % of control
dose: 150.0 mg/kg/injection, schedule: Q01DX001 (ip), vehicle: Klucel (hydroxypropylcellulose) (HPC)
  T/C: 106 % of control
dose: 300.0 mg/kg/injection, schedule: Q01DX001 (ip), vehicle: Klucel (hydroxypropylcellulose) (HPC)
  T/C: 102 % of control

## Nc1ccc(Sc2ccc(N)cc2)cc1
dose: 12.5 mg/kg/injection, schedule: Q04DX002 (ip), vehicle: Klucel (hydroxypropylcellulose) (HPC)
  T/C: 106 % of control
dose: 25.0 mg/kg/injection, schedule: Q04DX002 (ip), vehicle: Klucel (hydroxypropylcellulose) (HPC)
  T/C: 116 % of control
dose: 50.0 mg/kg/injection, schedule: Q04DX002 (ip), vehicle: Klucel (hydroxypropylcellulose) (HPC)
  T/C: 106 % of control
dose: 100.0 mg/kg/injection, schedule: Q04DX002 (ip), vehicle: Klucel (hydroxypropylcellulose) (HPC)
  T/C: 103 % of control

## CC(=O)c1ccc(Nc2ccnc3cc(Cl)ccc23)cc1
dose: 75.0 mg/kg/injection, schedule: Q01DX001 (ip), vehicle: other
  T/C: 109 % of control
dose: 150.0 mg/kg/injection, schedule: Q01DX001 (ip), vehicle: other
  T/C: 96 % of control
dose: 300.0 mg/kg/injection, schedule: Q01DX001 (ip), vehicle: other
  T/C: 91 % of control
